One assay has as its target T1, Matrilysin (Homo sapiens, UniProt P09237).
T1 sequence (P09237 whole entry): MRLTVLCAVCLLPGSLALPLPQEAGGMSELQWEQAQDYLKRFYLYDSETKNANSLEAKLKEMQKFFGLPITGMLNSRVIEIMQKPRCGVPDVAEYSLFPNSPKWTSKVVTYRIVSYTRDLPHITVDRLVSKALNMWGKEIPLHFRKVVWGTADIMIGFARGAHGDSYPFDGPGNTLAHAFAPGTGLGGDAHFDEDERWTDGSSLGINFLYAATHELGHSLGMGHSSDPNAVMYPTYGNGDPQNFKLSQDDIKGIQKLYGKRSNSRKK

Assay [1] has as its target 72 kDa type IV collagenase (Homo sapiens, UniProt P08253).
A further assay addresses Stromelysin-1 (Homo sapiens, UniProt P08254).
Assay [2] deals with Disintegrin and metalloproteinase domain-containing protein 9 (Homo sapiens, UniProt Q13443).
In assay [3] the target is Disintegrin and metalloproteinase domain-containing protein 33 (Homo sapiens, UniProt Q9BZ11). Nature of the assay: Inhibition of ADAM33.
The target in assay [4] is Matrix metalloproteinase-9 (Homo sapiens, UniProt P14780). Briefly: Inhibition of MMP9.
In the next assay the target is T2, Interstitial collagenase (Homo sapiens, UniProt P03956).
T2 sequence (P03956 whole entry): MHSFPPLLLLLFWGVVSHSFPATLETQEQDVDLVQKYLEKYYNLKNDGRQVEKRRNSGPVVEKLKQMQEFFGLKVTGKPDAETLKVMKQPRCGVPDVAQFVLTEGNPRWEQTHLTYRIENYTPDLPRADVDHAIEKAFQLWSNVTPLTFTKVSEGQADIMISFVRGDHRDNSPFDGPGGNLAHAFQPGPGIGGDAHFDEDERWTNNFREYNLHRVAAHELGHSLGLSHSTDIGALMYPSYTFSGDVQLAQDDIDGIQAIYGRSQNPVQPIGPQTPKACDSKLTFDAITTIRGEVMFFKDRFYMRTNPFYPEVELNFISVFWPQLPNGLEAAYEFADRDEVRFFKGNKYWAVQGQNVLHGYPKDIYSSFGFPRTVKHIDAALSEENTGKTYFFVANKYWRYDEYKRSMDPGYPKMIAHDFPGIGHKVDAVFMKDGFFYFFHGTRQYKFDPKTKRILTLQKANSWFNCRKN

Assay [5] addresses Matrix metalloproteinase-14 (Homo sapiens, UniProt P50281). Briefly: Inhibition of MMP14.
The target of a further assay is Neutrophil collagenase (Homo sapiens, UniProt P22894). Nature of the assay: Inhibition of MMP8.
A further assay addresses Neprilysin (Homo sapiens, UniProt P08473). Nature of the assay: Inhibition of NEP.
The target of assay [6] is Disintegrin and metalloproteinase domain-containing protein 17 (Homo sapiens, UniProt P78536). Nature of the assay: Inhibition of TACE.
Assay [7] addresses Macrophage metalloelastase (Homo sapiens, UniProt P39900). Briefly: Inhibition of MMP12.
In the next assay the target is Stromelysin-3 (Homo sapiens, UniProt P24347). Nature of the assay: Inhibition of MMP11.
The target of assay [8] is Angiotensin-converting enzyme (Homo sapiens, UniProt P12821). Briefly: Inhibition of ACE.
Another assay addresses Collagenase 3 (Homo sapiens, UniProt P45452). Nature of the assay: Inhibition of MMP13.
The target in assay [9] is Bone morphogenetic protein 1 (Homo sapiens, UniProt P13497). Briefly: Inhibition of BMP1.
Chain of Bone morphogenetic protein 1 (P13497 whole entry): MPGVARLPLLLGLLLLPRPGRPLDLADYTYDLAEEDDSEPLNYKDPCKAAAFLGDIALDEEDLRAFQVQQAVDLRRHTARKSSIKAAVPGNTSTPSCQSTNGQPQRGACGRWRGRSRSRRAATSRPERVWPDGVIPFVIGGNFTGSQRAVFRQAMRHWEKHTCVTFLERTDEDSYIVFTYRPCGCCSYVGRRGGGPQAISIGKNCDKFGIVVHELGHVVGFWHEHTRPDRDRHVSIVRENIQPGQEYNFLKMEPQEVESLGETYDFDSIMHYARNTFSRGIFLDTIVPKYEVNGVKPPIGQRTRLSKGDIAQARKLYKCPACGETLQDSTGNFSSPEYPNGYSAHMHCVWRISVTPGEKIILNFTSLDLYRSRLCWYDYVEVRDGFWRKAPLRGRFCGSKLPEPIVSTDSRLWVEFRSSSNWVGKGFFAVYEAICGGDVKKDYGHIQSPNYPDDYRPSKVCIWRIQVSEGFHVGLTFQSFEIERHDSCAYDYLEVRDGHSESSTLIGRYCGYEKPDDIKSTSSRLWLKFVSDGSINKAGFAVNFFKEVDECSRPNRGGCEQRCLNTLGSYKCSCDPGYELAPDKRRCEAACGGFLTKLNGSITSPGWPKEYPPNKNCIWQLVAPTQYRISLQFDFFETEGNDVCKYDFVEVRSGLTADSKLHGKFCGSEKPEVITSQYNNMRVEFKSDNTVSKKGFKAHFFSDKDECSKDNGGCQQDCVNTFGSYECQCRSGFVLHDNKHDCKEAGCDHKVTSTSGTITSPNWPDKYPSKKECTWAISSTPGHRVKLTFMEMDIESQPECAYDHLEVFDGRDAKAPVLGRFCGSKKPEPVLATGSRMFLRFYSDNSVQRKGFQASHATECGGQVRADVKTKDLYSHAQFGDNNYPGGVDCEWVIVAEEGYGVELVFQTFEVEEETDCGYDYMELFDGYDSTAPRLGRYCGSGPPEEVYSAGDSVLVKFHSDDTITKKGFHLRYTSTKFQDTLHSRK

Chain of Stromelysin-1 (P08254 whole entry, the tested form may be a part): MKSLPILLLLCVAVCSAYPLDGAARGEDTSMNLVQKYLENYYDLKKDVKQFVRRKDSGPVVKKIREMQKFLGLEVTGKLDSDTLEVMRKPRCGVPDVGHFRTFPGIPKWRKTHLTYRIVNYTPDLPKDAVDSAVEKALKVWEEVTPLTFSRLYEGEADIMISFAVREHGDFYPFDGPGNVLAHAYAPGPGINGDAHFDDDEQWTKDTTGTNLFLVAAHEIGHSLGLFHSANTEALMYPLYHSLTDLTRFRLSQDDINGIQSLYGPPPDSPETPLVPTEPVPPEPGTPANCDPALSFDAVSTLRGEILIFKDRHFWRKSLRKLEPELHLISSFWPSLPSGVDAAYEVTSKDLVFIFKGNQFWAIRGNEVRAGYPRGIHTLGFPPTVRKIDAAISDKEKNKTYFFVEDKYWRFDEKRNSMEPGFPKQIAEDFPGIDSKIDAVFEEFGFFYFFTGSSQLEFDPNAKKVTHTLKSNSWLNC
Chain of Matrix metalloproteinase-9 (P14780 whole entry): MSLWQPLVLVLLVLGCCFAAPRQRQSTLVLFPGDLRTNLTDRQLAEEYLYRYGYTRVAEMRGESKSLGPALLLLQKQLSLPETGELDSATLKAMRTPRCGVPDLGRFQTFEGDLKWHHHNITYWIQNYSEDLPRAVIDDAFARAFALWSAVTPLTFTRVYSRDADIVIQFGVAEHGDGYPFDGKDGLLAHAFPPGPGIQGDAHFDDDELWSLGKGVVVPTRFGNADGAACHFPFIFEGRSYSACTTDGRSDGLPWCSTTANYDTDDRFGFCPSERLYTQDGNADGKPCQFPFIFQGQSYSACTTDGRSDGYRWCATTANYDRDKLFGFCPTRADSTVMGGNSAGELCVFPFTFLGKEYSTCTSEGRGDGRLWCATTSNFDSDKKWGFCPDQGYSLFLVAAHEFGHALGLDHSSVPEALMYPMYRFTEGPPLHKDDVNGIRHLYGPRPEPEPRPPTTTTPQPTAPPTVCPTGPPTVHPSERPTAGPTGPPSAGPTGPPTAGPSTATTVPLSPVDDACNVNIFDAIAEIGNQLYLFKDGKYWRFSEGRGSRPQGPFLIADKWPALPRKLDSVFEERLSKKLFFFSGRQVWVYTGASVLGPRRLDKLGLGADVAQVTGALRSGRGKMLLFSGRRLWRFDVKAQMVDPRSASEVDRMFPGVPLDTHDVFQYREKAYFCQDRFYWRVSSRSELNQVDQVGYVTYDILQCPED
Chain of 72 kDa type IV collagenase (P08253 whole entry): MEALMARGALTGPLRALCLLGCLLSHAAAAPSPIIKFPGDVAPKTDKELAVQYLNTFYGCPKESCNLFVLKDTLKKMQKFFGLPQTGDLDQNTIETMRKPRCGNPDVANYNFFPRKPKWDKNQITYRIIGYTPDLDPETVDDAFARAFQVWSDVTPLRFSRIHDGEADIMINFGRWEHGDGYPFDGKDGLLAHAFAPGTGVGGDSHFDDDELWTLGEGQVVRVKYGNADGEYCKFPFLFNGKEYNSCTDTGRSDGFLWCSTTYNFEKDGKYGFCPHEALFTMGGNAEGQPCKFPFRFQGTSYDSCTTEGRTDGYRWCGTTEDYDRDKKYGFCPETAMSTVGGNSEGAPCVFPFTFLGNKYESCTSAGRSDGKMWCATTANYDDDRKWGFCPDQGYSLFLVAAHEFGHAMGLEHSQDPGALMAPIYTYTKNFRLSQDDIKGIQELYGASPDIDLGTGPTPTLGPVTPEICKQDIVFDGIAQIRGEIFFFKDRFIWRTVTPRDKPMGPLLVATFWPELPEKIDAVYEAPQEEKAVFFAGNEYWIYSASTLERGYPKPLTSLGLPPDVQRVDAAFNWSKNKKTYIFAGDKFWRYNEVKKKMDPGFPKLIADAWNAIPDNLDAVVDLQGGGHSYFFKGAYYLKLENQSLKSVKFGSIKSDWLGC
Chain of Disintegrin and metalloproteinase domain-containing protein 33 (Q9BZ11 whole entry, the tested form may be a part): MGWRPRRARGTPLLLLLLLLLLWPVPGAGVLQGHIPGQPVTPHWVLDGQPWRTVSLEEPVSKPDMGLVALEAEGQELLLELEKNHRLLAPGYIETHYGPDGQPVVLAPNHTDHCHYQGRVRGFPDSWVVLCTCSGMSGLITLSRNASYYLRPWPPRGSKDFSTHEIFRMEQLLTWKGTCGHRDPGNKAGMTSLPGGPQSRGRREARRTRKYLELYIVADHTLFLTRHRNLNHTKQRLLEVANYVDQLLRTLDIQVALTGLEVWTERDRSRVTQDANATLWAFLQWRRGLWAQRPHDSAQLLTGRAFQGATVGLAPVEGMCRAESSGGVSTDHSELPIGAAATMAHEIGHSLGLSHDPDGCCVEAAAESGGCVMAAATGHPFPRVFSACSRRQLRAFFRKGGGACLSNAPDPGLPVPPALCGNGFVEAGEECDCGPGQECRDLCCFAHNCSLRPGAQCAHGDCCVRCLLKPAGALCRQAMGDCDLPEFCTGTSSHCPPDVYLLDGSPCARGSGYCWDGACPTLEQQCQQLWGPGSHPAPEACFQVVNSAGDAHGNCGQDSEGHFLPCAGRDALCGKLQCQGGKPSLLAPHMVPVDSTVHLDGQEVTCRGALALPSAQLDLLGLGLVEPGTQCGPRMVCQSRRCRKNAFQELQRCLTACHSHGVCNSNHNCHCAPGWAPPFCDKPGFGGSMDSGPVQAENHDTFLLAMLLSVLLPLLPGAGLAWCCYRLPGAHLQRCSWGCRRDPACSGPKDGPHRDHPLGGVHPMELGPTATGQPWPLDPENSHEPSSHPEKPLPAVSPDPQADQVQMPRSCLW
Chain of Disintegrin and metalloproteinase domain-containing protein 17 (P78536 whole entry, the tested form may be a part): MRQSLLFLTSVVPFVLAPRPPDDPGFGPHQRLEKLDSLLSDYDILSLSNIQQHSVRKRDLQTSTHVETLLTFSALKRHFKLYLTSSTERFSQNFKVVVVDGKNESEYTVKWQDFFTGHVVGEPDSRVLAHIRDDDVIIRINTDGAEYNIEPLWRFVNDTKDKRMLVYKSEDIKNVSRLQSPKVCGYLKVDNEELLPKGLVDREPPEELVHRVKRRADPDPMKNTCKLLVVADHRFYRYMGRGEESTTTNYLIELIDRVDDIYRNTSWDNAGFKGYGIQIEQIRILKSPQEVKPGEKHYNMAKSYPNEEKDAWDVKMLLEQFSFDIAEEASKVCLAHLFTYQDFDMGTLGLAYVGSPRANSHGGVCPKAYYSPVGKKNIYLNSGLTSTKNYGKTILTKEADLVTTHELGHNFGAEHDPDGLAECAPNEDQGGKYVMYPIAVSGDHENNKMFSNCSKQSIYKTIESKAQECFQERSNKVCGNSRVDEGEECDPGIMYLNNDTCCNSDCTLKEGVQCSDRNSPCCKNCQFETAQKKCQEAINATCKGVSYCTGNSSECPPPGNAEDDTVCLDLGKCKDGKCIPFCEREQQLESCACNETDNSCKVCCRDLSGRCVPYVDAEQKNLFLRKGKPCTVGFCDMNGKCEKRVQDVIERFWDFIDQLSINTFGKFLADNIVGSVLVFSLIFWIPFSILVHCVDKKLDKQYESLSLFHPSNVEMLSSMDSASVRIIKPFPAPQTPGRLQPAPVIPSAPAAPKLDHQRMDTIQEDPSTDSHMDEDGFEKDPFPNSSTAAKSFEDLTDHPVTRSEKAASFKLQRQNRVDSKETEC
Chain of Stromelysin-3 (P24347 whole entry): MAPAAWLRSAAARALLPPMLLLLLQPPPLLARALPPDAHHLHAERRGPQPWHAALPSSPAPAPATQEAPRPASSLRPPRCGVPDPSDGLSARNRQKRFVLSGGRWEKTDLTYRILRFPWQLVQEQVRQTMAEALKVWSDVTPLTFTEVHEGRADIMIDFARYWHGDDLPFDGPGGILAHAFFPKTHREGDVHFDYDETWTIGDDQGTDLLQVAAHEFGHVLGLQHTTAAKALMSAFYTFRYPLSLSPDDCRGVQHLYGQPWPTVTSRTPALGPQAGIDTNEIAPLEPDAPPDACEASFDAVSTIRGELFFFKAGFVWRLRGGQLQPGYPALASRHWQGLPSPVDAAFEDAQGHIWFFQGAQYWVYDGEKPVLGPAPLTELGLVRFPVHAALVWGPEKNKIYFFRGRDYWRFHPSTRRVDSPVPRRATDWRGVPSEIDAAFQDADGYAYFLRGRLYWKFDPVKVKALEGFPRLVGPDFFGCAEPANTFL

For `COC(=O)N1CC2(CC2)C[C@H](C(=O)NO)[C@H]1C(=O)N1CC=C(c2ccccc2)CC1`, the IC50 – broadly, the point on the concentration scale where inhibition reaches its midpoint – at Matrilysin is greater than 5000 nM; in assay [1] it was 35 nM; against Stromelysin-1, 3560 nM; in [2], greater than 5000 nM; in assay [3], 1030 nM; in [4], 304 nM. In addition, the IC50 at Interstitial collagenase was greater than 5000 nM.
On to `Cc1cc(COc2ccc([C@]3(C)CCN([C@H](C)C(=O)NO)C3=O)cc2)c2ccccc2n1`, for which affinity in assay [3] was put at a Ki of 15 nM. Half-maximal inhibition in “tissue or blood” (IC50) required 0.35 nM.
For `NC(=O)[C@H](CCC(=O)O)NC(=O)[C@H](CCC(=O)O)NC(=O)[C@H](Cc1cc(-c2ccc(-c3cccc(Cl)c3)cc2)no1)CP(=O)(O)c1ccc(Br)cc1`, the Ki (as a rule, a dissociation constant, usually derived from enzyme kinetics or from competition with a known ligand) in [5] was 140 nM; on Matrilysin, 626 nM; in [1], 192 nM; on Neutrophil collagenase, 271 nM; at Neprilysin, greater than 100000 nM; in [6], greater than 100000 nM. Moreover, the Ki in assay [7] was 0.19 nM; at Stromelysin-3 it was 18400 nM; on Stromelysin-1, 40 nM; in assay [8], greater than 100000 nM; on Collagenase 3, 49 nM; in [4], 1260 nM. On Interstitial collagenase, this compound gave a Ki of 67000 nM.
Turning to `CS(=O)(=O)NCc1noc([C@H](CCCC2CCCCC2)CC(=O)NO)n1`, the Ki was greater than 100000 nM in assay [5]; greater than 100000 nM on Stromelysin-1; 91000 nM on Collagenase 3; 11 nM in [9]; greater than 100000 nM in assay [4]; 1 nM at Interstitial collagenase.

(Values after ChEMBL document CHEMBL1141723, “Specific targeting of metzincin family members with small-molecule inhibitors: progress toward a multifarious challenge” (Bioorg Med Chem, 2008).)
